Assay results: paper PMC11111895, “Identification of a dCache-type chemoreceptor in Campylobacter jejuni that specifically mediates chemotaxis towards methyl pyruvate” (Frontiers in Microbiology, 2024)

Assays:
[1] = system: Tlp11-LBD (residues 32–332 of Tlp11); assay: Thermal shift assay (TSA) of Tlp11-LBD; type: binding, C. jejuni ATCC 33560
Experimental: TSA measurements were performed using a quantitative Real-Time PCR System (LightCycler® 480; Roche, United States), to monitor the Tm of the LBD proteins. The compounds listed in Supplementary Table S2 were used as ligand candidates for the high-throughput screening. Each 25 μL mixture for the standard assay contained 20 μM protein, 1–2 mM compound in Buffer C, and SYPRO™ Orange dye (Life Technologies, United States), at 5× concentration. Samples were heated from 26°C to 85°C, with a ramp rate of 1.2°C min^−1, to denature the protein. Protein unfolding curves were recorded by detecting the changes in fluorescence. The Tm values were calculated using first-derivative values (dF/dT) from the raw data.
Fluorescence-based TSA, which has been widely used to discover direct-binding molecules of proteins with high efficiency ([Fernández et al., 2018]), was used to identify the ligand specificity of the C. jejuni chemoreceptor Tlp11. The Tlp11-LBD protein (residues 32–332 of Tlp11) from the strain C. jejuni ATCC 33560 was expressed and purified from E. coli. Hydrophobic reactive dyes were added to the purified protein sample, and the protein was heated to record the change in fluorescence intensity as the temperature increased during the denaturation process of the protein (see Materials and Methods). The melting temperature (Tm) of the target protein was obtained and represented as the midpoint of the protein unfolding transition. Most ligands stabilize the protein during binding, leading to an increase in Tm. Using TSA, we screened a compound library composed of 131 molecules (Supplementary Table S2) that commonly act as microbial carbon and nitrogen sources or metabolites in the human GI tract. Among the compounds in the library, methyl pyruvate elicited the most significant increase in Tm. In the absence of the ligand, the Tm of Tlp11-LBD was 38.3°C, while in the presence of 1 mM methyl pyruvate, the Tm increased by 1.1°C compared to buffer (Figure 1A).

[2] = biological target: Tlp11-LBD homologue (WP_066386874.1, residues 33-320); assay: MST of Tlp11-LBD homologue; type: binding, Helicobacter himalayensis; conditions: H. himalayensis LBD
Experimental: The His-tag dye (MO-L018 RED-tris-NTA, NanoTemper, Germany) was adjusted to a final concentration of 25 nM and used to label the purified protein with a His-tag. The compound was diluted to a series of concentrations in phosphate-buffered saline ([Duan et al., 2023]) with 0.05% Tween 20 (PBS-T) buffer and mixed in a ratio of 1:1 with protein. The mixtures were loaded into capillaries (Monolith™ Series capillaries, NanoTemper) by means of capillary action. Thermophoresis was measured using a Monolith™ NT.115 (NanoTemper) instrument, with 40% excitation and 40% MST power configuration. The time-traces of changes in fluorescence, which reflected the thermophoretic movement of labeled protein affected by different concentrations of compound were recorded, and the dose–response curves were fitted with the ‘temperature jump and thermophoresis’ mode. Data analysis was performed using MO. Affinity Analysis version 2.3 (NanoTemper) and Prism version 8.0.2 (GraphPad Software, United States).
To evaluate whether these potential Tlp11-LBD homologues could bind to methyl pyruvate, we conducted a structural analysis of the LBDs of six chemoreceptors from C. coli, H. equorum, H. himalayensis, H. mesocricetorum, H. ganmani, and C. upsaliensis using Alphafold 2. […]

[3] = system: C. jejuni NCTC 11168ΩTlp11 cells; type: cell-based, Campylobacter jejuni; conditions: 11168ΩTlp11 cells; microfluidic device, 30 min
[4] = system: Tlp11[1-342]-Tar[200-553] (Tlp342Tar200); assay: Microfluidic chemotaxis of E. coli expressing hybrid chemoreceptor Tlp342Tar200; type: cell-based, E. coli VS188; conditions: microfluidic device, 50 min
Experimental: The E. coli cells expressing hybrid chemoreceptor and GFP were grown in tryptone broth, up to an OD600 of 0.55, at 34°C, with shaking at 250 rpm. The cells were harvested by means of centrifugation at 5,000 rpm, washed twice with Tethering Buffer (10 mM KH2PO4, 10 mM K2HPO4, and 0.1 mM EDTA, pH 7.0), and resuspended in Tethering Buffer such that an OD600 of 5.5 was attained. The chemotactic responses of E. coli cells to the compounds were measured using a microfluidic device ([Si et al., 2012]). The collected E. coli cells were added to the sink pores of the device and allowed to freely diffuse into the observation channel for 40 min. Subsequently, the compound solution was added to the source pores, to establish a concentration gradient gradually in the observation channel of the device. Fluorescence intensity in the observation channel was detected using an LSM 800 laser scanning confocal microscope (Zeiss, Germany). Data were analyzed using ImageJ software.
To determine whether methyl pyruvate stimulates transmembrane signaling through Tlp11-LBD, we fused C. jejuni ATCC 33560 Tlp11-LBD with the cytoplasmic region of the E. coli chemoreceptor Tar to construct Tlp11-Tar hybrid chemoreceptors (Figure 3A). Five hybrid receptors with different fusion positions in the second transmembrane helix (TM2) were obtained: Tlp11[1-342]-Tar[200-553] (Tlp342Tar200), Tlp11[1-343]-Tar[200-553] (Tlp343Tar200), Tlp11[1-346]-Tar[204-553] (Tlp346Tar204), Tlp11[1-347]-Tar[204-553] (Tlp347Tar204), and Tlp11[1-348]-Tar[204-553] (Tlp348Tar204) (Supplementary Figure S5A). To verify the activities of these hybrid chemoreceptors, we expressed each protein as a chimera in green fluorescent protein (GFP)-labeled E. coli VS188 without any other chemoreceptors, such that each hybrid receptor served as the only chemoreceptor in the E. coli. […] These chemotactic responses triggered by glucose through the phosphotransferase system are independent of the chemoreceptor LBD ([Neumann et al., 2012]). […] Thus, we used this hybrid receptor for subsequent chemotaxis measurements.

[5] = system: pin-head Tar (Tar without LBD) or WT Tar; assay: Microfluidic chemotaxis of E. coli expressing pin-head Tar or WT Tar; type: cell-based, E. coli VS188; conditions: microfluidic device, 50 min

## COC(=O)C(C)=O [methyl pyruvate, Methyl pyruvate]
[1]; 1 mM compound, 20 μM protein
  Tm increase of Tlp11-LBD compared to buffer (ΔTm): 1.1 °C
[1]; 3 mM compound
  ΔTm of Tlp11-LBD: 1.3 °C
[1]; 10 mM compound
  ΔTm of Tlp11-LBD: 2.8 °C
[2]
  Kd: 1100 ± 300 µM
[3]
  chemotactic response: robust attractant response
[4]
  chemotactic response of E. coli expressing Tlp342Tar200 as the sole receptor: strong attractant response
[5]
  chemotactic response of E. coli expressing pin-head Tar or WT Tar as the sole chemoreceptor: no response or a much weaker response
